Experimental data reported in patent US20150025031A1, “METABOLIC DOWNREGULATION FOR CELL SURVIVAL” (WAKE FOREST UNIVERSITY HEALTH SCIENCES, priority 2012, published 2015).
Read-outs that look alike come from different tables or passages of the source.

Legend:
[1] = biological target: T1, adenosine deaminase (ADA) (Homo sapiens, UniProt P00813); experiment: Cell viability with adenosine derivatives in presence or absence of ADA, normoxic conditions (Example 2); type: cell-based; conditions: presence of ADA
T1 construct: purchased Sigma
T1 sequence (P00813 1-363): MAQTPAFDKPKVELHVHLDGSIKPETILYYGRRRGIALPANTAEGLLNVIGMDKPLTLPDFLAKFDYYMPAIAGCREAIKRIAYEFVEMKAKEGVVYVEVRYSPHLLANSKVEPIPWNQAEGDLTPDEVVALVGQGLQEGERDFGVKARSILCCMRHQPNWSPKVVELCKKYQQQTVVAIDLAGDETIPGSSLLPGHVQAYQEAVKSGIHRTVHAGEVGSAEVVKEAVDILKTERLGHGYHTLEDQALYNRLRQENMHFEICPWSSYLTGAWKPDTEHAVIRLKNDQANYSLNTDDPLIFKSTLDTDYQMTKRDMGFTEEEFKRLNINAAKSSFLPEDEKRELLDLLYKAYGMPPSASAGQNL
Procedure: Three known ADA inhibitors were examined to evaluate the efficacies of adenosine derivatives: cladribine, pentostatin, and fludarabine phosphate. They have similar structures and molecular weights compared to adenosine, but different functional groups in the structures. Metabolic rate of cells were indirectly analyzed by cell viability in the presence or absence of adenosine derivatives and ADA in various doses. Cell viability with the drugs was evaluated under normoxic conditions.
Adenosine (Sigma-Aldrich), cladribine (Sigma, 2-Chloro-2′-deoxyadenosine), pentostatin (Tocris biosciences), and fludarabine phosphate (LGM Pharma) were used throughout this study.

[2] = tested on: C2C12 murine myoblasts; experiment: C2C12 cell counts (PicoGreen dsDNA) under 0.1% hypoxia, then normoxia; type: cell-based
Procedure: C2C12 murine myoblasts (ATCC) were cultured in a growth medium containing Dulbecco's modified Eagle's medium (DMEM, Gibco) supplemented with 10% FBS, 500 U/mL penicillin and 500 μg/mL streptomycin.
(§1) Hypoxic condition was maintained with a gas mixture containing 0.1% O2, 5% CO2 and 94.9% N2 at 37° C. and full humidity in an X-Vivo System (Biospherix). […] The hypoxic groups were then placed to the hypoxic chamber and incubated up to day 11, whereas the normoxic group continued to be incubated in the regular incubator. No medium change was made on both normoxic and hypoxic groups up to day 11. After transfer to normoxic conditions, cells were cultured in the regular incubator with an exchange of no adenosine-containing, fresh medium every third day.
Cell proliferation of each group was determined by a Quanti-iT PicoGreen dsDNA Kit (Invitrogen). After washed with PBS, cells were lysed with 55 μL of RIPA buffer (Sigma) on ice for 5 min, then the supernatants were mixed with an equal volume of PicoGreen dsDNA quantitation reagent, a fluorescent DNA dye (excitation at 480 nm; emission at 520 nm). The DNA content was quantified using a SpectraMax M5 microplate reader (Molecular Devices). The number of cells was calculated using a standard curve plotted from fluorescent readings of serial dilutions of a known concentration of cells.
Cell viability was visualized using a calcein AM (Invitrogen) where viable cells fluoresce green through the reaction of calcein AM.

[3] = tested on: C2C12 cells; experiment: Myotube formation of hypoxia-survived C2C12 cells; type: cell-based, murine; conditions: after 11 days adenosine under hypoxia, 2% horse serum medium 6 days
Procedure: After C2C12 cells that survived the hypoxic stress in the presence of adenosine were transferred to normoxic conditions without further supply of adenosine, they were cultured continuously for 3 days in the growth medium followed by 2% horse serum-containing medium for another 6 days. […] Nuclei were counterstained with DAPI (Vector). Photomicrographs were obtained using a Leica inverted fluorescence microscope. Myotube formation was also observed by Giemsa staining (1:20, Sigma-Aldrich) using a Zeiss upright light microscope.

[4] = tested on: C2C12 cells; experiment: MTS metabolic activity per cell, C2C12 under 0.1% hypoxia; type: cell-based, murine; conditions: 5 mM adenosine
Procedure: as §1
Mitochondrial metabolic activity of viable cells was assessed using a 3-(4,5-dimethylthiazol-2-yl)-5-(3-carboxymethoxyphenyl)-2-(4-sulfophenyl)-2H-tetrazolium (MTS) assay (Promega). Cells were rinsed with PBS three times followed by the addition of 120 μL of MTS reagent to each well. After an hour of incubation, optical density (OD) of a brown formazan product by dehydrogenase enzymes in metabolically active cells was measured with a microplate reader at 490 nm. The mean OD value obtained from media blanks was standardized as […]. For some analyses, metabolic activity measured at each time point was normalized by the cell number obtained from PicoGreen assay as previously described. The total metabolic activity represented by the area under the curve over time was computed using Origin Pro v. 8 (Origin Lab Corporation).

[5] = tested on: Soleus muscle tissues; experiment: Survival of soleus muscle tissue under hypoxia (H&E, EthD-1 dead assay); type: cell-based, Sprague Dawley rats; conditions: 5 mM adenosine, 10 days hypoxic culture
Procedure: Soleus muscle tissues dissected immediately after sacrifice of Sprague Dawley rats (17 weeks old, 380-400 g, Harlan) were assigned to one of three groups in the growth medium: (1) native tissue group (2) no adenosine-treated hypoxic group and (3) hypoxic group with 5 mM adenosine supplemented in 2 mL of medium. The media was changed every third day. At day 10, a half of the tissue sample was fixed in 10% neutral buffered formalin (Sigma-Aldrich), 6 μm sections were generated by a cryotome (Leica), and stained with hematoxyline and eosin (H&E). Microscopic analysis was performed using a light microscope (Zeiss). Dead assay was assessed on the remaining tissues using 4 μM ethidium homodimer-1 (EthD-1, Invitrogen) to stain dead cells with damaged cell membranes. The stained sections were observed using a fluorescent microscope (Leica). The number of dead cells was quantitated using the “analyze particle” method with Image J software (U.S. National Institute of Health) on the fluorescence images, and its percentage was calculated based on the number of DAPI-stained cells on each section.

[6] = tested on: Rat tibialis anterior (TA) muscle tissues; experiment: In vitro ischemic tibialis anterior muscle tissue survival (H&E, TUNEL); type: cell-based, Sprague Dawley rats; conditions: 5 mM injected, 3 days incubation
Procedure: Rat tibialis anterior (TA) muscle tissues were dissected immediately after sacrifice of Sprague Dawley rats (17 weeks old, 380-400 g, Harlan), injected with blank, 5 mM of adenosine or cladribine, and then incubated in 5 mL of complete media for 3 days.
The tissue samples were fixed in 10% neutral buffered formalin (Sigma-Aldrich), 6 μm sections were generated by a cryotome (Leica), and stained with hematoxyline and eosin (H&E) and with TUNEL staining. Microscopic analyses were performed using a light microscope (Zeiss M1) and ImagePro software.

[7] = tested on: C2C12 mouse myoblasts; conditions: 5 mM
[8] = tested on: C2C12 mouse myoblasts; conditions: 5 mM; for cellular metabolism under hypoxia: MTS

Nc1ncnc2c1ncn2[C@@H]1O[C@H](CO)[C@@H](O)[C@H]1O [adenosine]
conversion by ADA / stability towards adenosine degrading enzymes [1]: lost its activity in presence of ADA | growth recovery after transfer to normoxic conditions ([2]; 0.05 mM adenosine, after 11 days 0.1% hypoxia): never recovered even after transfer to normoxic conditions | number of cells maintained after 11 days of hypoxic stress ([2]; 1, 2 and 5 mM adenosine, 0.1% hypoxia, day 11): two to four | proliferation after transfer to normal oxygen tension ([2]; 1, 2 and 5 mM adenosine, after 11 days 0.1% hypoxia): resumed their proliferation at a growth rate comparable to that in normoxic cells | most effective adenosine concentration ([2]; C2C12 survival, 0.1% hypoxia): 5 mM | time for onset of re-proliferation ([2]; after transfer to normoxia, 1, 2, 5 mM): concentration-dependent | myotube formation (differentiating capability) [3]: showed capability of forming myotubes | metabolic activity in early hypoxic phase ([4]; 0.1% hypoxia, MTS per cell): suppressed initially up to day 5 | metabolic activity maintained, of the initial metabolic activity ([4]; 0.1% hypoxia, day 11, MTS per cell): approximately 68% | metabolic activity after transfer to normoxic conditions ([4]; after 11 days hypoxia): restored to a level equivalent to that in normoxic cells | degree of muscle damage (H&E) [5]: tissues cultured without adenosine showed more damage than those treated with 5 mM adenosine | dead cells as percentage of number of DAPI-stained cells ([5]; EthD-1): 46% | number of live nuclei (TUNEL) [6]: slightly increased live nuclei | proliferation after drug and hypoxia removed ([7]; treated with ADA): failed to revive after the hypoxia and drug was removed | proliferation after drug and hypoxia removed ([7]; used alone (no ADA)): started to regain their normal proliferation | cell population under hypoxic condition ([7]; used alone (no ADA), 7 days hypoxia): maintain cell population significantly lower than the no treatment control | cellular metabolism under hypoxia ([8]; treated with ADA): failed to reduce cellular metabolism and showed increased metabolic activity when compared to control | metabolism after drug and hypoxia removed ([8]; used alone (no ADA)): recovered normal metabolism | cellular metabolism under hypoxia ([8]; used alone (no ADA)): minimized cellular metabolism
